From patent US9586999B2, “Methods and compositions related to improving properties of pharmacological agents targeting nervous system” (University of Utah Research Foundation, priority 2006, dated 2017)
Where “and” joins values, the source holds several entries; their conditions need not be identical. Equal values may be shown once. Entries after “also recorded” stand apart in the source; their conditions may differ. Read-outs that look alike come from different tables or passages of the source. Square brackets hold non-standard residues; d marks the D form. Ends that are not written are not given here. Ahx = NCCCCCC(=O)O

Legend:
6 Hz limbic seizures = test: 6 Hz limbic (psychomotor) seizure test; type: in vivo, mouse; conditions: for ED50: Mus musculus, ip; for ED50 / ED50 in the 6 Hz limbic seizure model (in Table 14 in parentheses): i.p.; for effect against 6 Hz (22 mA) limbic seizures: administered into the ventricular space, CF-1 mice; for ED50 in the 6 Hz limbic seizure model (in Table 14 in parentheses): SAR analogs; for % Protection at 1, 2 and 4 hours afforded by a dose of 4 mg/kg, i.p. (result in words): all time points; for % Protection at 30 min (4 mg/kg, i.p.): octreotide and DSIP analogs
Source text: Mice not displaying limbic seizures were considered protected.
As mentioned above, the 6 Hz seizure becomes more resistant to block by antiepileptic drugs as the current is increased from 22 mA to 44 mA.

[1] = system: formalin-induced paw licking; test: Mouse formalin test of inflammatory pain; type: in vivo; conditions: for phase II response at the active dose: mouse formalin assay; for Active at: mouse formalin assay of inflammatory pain; for potency in mouse formalin assay: in vivo
Description: An injection of 0.5% formalin is made into the planter region of a mouse right hind paw. This elicits a distinct biphasic behavioral profile characterized by the mouse licking the affected paw. Immediately following the injection the mouse licks the paw for about 10 minutes. This is phase 1 (acute) and is followed by a brief latent period where there is little behavioral activity. A more prolonged period of about 20 to 30 minutes of paw licking ensues which constitutes phase 2 (inflammatory).
Prior to the administration of the active peptide, drug or vehicle each mouse undergoes a 15-minute conditioning period in one of several 6″ tall plexiglass observation tubes (4″ diameter) that are placed in front of a mirror. […] One hour after treatment, formalin was injected sub-dermally (20 μl; 27 gauge needle) into the plantar surface of the right hind foot. The bevel of the needle is placed facing down toward the skin surface. Following the injection of the formalin each animal is observed for first 2 minutes of each 5 minute epoch for a total of 45 minutes. The cumulative length of licking for each 2 minute time period was measured. An animal receiving the requisite volume of vehicle was alternated with each mouse given GAL-BBB2, Gal 1-16, or gabapentin. Animals were euthanized following the conclusion of the experiment.
Area under the curve (AUC) determination was made using the GraphPad Prism Version 3.03. Total AUC is calculated for both the test and control groups for both the acute and inflammatory phases. The AUC for individual animals for each phase is also calculated and converted to percentage of total AUC of control. The average percentages and SEM for both the drug treated and control were calculated and tested for significant difference.

sound-induced seizures = test: Frings audiogenic seizure-susceptible mouse model of reflex epilepsy; type: in vivo
Source text: (§1) The ability of individual modified peptides to prevent seizures induced by sound in the AGS-susceptible Frings mouse model can be assessed at the time of peak effect (White et al., 1992). For this test, individual mice are placed into a plexiglass cylinder (diameter, 15 cm; height, 18 cm) fitted with an audio transducer (Model AS-ZC; FET Research and Development, Salt Lake City, Utah), and exposed to a sound stimulus of 110 decibels (11 KHz) delivered for 20 seconds. Sound-induced seizures are characterized by wild running followed by loss of righting reflex with forelimb and hindlimb tonic extension. Mice not displaying hindlimb tonic extension are considered protected.
The two modified galanin analogs (GAL-BBB1 and GAL-BBB2) were administered i.p. to a group of Frings audiogenic seizure susceptible mice in a dose of 4 mg/kg. At various times after administration (i.e., 15, 30, 60, 120, and 240 min) each mouse was placed into a cylindrical test chamber fitted with an audio transducer and challenged with a high-intensity sound stimulus (110 dB, 11 KHz for 20 sec). Animals not displaying tonic hind-limb extension were considered protected. […] In a subsequent study, anticonvulsant efficacy was quantitated at the time to peak effect (i.e., 1 h) in a dose-response study.
as §1, with “analogs” for “peptides”
At various times after administration (i.e., 15, 30, 60, 120, and 240 min) each mouse was placed into a cylindrical test chamber fitted with an audio transducer and challenged with a high-intensity sound stimulus (110 dB, 11 KHz for 20 sec).

[2] = stimulus intensity 22 mA, read-out: 22 mA (ED50, 6 Hz model)
[3] = stimulus intensity 32 mA, read-out: 32 mA (ED50, 6 Hz model)
[4] = stimulus intensity 44 mA, read-out: 44 mA (ED50, 6 Hz model)

## CCC1(C)CC(=O)NC1=O (centres unmarked) [Ethosuximide, reference compound]
6 Hz limbic seizures; [2]
  ED50: 86.9 mg/kg
6 Hz limbic seizures; [3]
  ED50: 167 mg/kg
6 Hz limbic seizures; [4]
  ED50: 600 mg/kg

## Nc1nnc(-c2cccc(Cl)c2Cl)c(N)n1 [Lamotrigine, reference compound]
6 Hz limbic seizures; [2]
  ED50: 4.4 mg/kg
6 Hz limbic seizures; [3]
  ED50: > 60 mg/kg
6 Hz limbic seizures; [4]
  ED50: > 60 mg/kg

## O=C1NC(=O)C(c2ccccc2)(c2ccccc2)N1 [Phenytoin, reference compound]
6 Hz limbic seizures; [2]
  ED50: 9.4 mg/kg
6 Hz limbic seizures; [3]
  ED50: > 60 mg/kg
6 Hz limbic seizures; [4]
  ED50: > 60 mg/kg

## CCCC(CCC)C(=O)O [Valproic acid, reference compound]
6 Hz limbic seizures; [2]
  ED50: 41.5 mg/kg
6 Hz limbic seizures; [4]
  ED50: 310 mg/kg

## C[C@H](N)C(=O)NCC(=O)N[C@H]1CSSC[C@@H](C(=O)O)NC(=O)[C@H](CO)NC(=O)[C@H]([C@@H](C)O)NC(=O)[C@H](Cc2ccccc2)NC(=O)[C@H]([C@@H](C)O)NC(=O)[C@H](CCCCN)NC(=O)[C@H](Cc2c[nH]c3ccccc23)NC(=O)[C@H](Cc2ccccc2)NC(=O)[C@H](Cc2ccccc2)NC(=O)[C@H](CC(N)=O)NC(=O)[C@H](CCCCN)NC1=O [somatostatin, reference compound]
6 Hz limbic seizures
  effect against 6 Hz (22 mA) limbic seizures: effective

## (Sar)WTLNSAGY(Ahx)KK(Lys-P)K [NAX 306-4]
6 Hz limbic seizures; 4 mg/kg i.p., 4 mg/kg
  % Protection at 2 hours afforded by a dose of 4 mg/kg, i.p.: 0% and 0%, 0%
  % Protection at 4 hours afforded by a dose of 4 mg/kg, i.p.: 0% and 0%, 0%
6 Hz limbic seizures
  ED50 in the 6 Hz limbic seizure model (in Table 14 in parentheses): (2.95 mg/kg)
[1]; 2.95 mg/kg
  activity in the second response phase of the inflammatory pain assay: very active
[1]
  phase II response at the active dose: (“flat phase II”)
  Active at: 2.9 mg/kg
  potency in mouse formalin assay: potent

## (Sar)WTLNSAGYKK(Lys-P)K [NAX 306-3]
6 Hz limbic seizures; 4 mg/kg i.p.
  % Protection at 2 hours afforded by a dose of 4 mg/kg, i.p.: 25%
  % Protection at 4 hours afforded by a dose of 4 mg/kg, i.p.: 0%
6 Hz limbic seizures
  ED50 in the 6 Hz limbic seizure model (in Table 14 in parentheses): (2.7 mg/kg)
[1]
  phase II response at the active dose: (“flat phase II”)
  Active at: 2.7 mg/kg
  potency in mouse formalin assay: potent

## (Sar)WTLNSAGYLLGPDKDK(Lys-P)DK [NAX 1205-2]
6 Hz limbic seizures; 4 mg/kg i.p.
  % Protection at 2 hours afforded by a dose of 4 mg/kg, i.p.: 50%
  % Protection at 4 hours afforded by a dose of 4 mg/kg, i.p.: 75%
6 Hz limbic seizures
  ED50 in the 6 Hz limbic seizure model (in Table 14 in parentheses): (1.2 mg/kg)

## (Sar)WTLNSAGYLLGPHA(Lys-P) [NAX 306-5]
6 Hz limbic seizures; 4 mg/kg i.p.
  % Protection at 1, 2 and 4 hours afforded by a dose of 4 mg/kg, i.p. (result in words): Not active

## (Sar)WTLNSAGYLLGPRR(Lys-P)R [NAX 1205-3]
6 Hz limbic seizures; 4 mg/kg i.p.
  % Protection at 2 hours afforded by a dose of 4 mg/kg, i.p.: 75%
  % Protection at 4 hours afforded by a dose of 4 mg/kg, i.p.: 0%

## (Sar)WTLNSAGYLLKK(Lys-P)K [NAX 1205-5]
6 Hz limbic seizures; 4 mg/kg i.p.
  % Protection at 2 hours afforded by a dose of 4 mg/kg, i.p.: 25%
  % Protection at 4 hours afforded by a dose of 4 mg/kg, i.p.: 0%

## DPhe-Cys-Phe-DTrp-Lys-Thr-Cys-Thr-NH2 [SEQ ID NO: 148, reference compound]
6 Hz limbic seizures; 4 mg/kg i.p.
  % Protection at 30 min (4 mg/kg, i.p.): 50%

## GWTLNSAGYLLGPHAV [Gal(1-16), reference compound]
6 Hz limbic seizures; 4 mg/kg i.p.
  % Protection at 1, 2 and 4 hours afforded by a dose of 4 mg/kg, i.p. (result in words): Not active
6 Hz limbic seizures; intracerebroventricular, 6 Hz (32 mA)
  ED50 following i.c.v. administration: 1.7 nmol
[1]; 20 mg/kg i.p.
  activity of native fragment in formalin test: inactive
sound-induced seizures; 20 mg/kg i.p.
  anticonvulsant activity of native fragment: inactive; also recorded: but not the native GAL(1-16) fragment (20 mg/kg) was effective

## Lys-Lys-Lys(palm)-Lys-Ahx-DPhe-Cys-Phe-DTrp-Lys-Thr-Cys-Thr-NH2 [SEQ ID NO: 149]
6 Hz limbic seizures; 4 mg/kg i.p.
  % Protection at 30 min (4 mg/kg, i.p.): 100%

## Sar-Trp-Thr-Leu-Asn-Ser-Ala-Gly-Tyr-Leu-Leu-Gly-Pro-His-(Lys-palm)-Tle-NH2 [GAL-BBB1]
sound-induced seizures; 4 mg/kg i.p., 15-240 min, also higher dose of 12 mg/kg
  anticonvulsant activity (protection from tonic hind-limb extension): not active at any time point tested

## WAGGDFSGE [DSIP, reference compound]
6 Hz limbic seizures; 4 mg/kg i.p.
  % Protection at 30 min (4 mg/kg, i.p.): 0%
6 Hz limbic seizures
  effect against 6 Hz (22 mA) limbic seizures: effective

## [Ahx]GGWAGGDFSGE [SEQ ID NO: 142]
6 Hz limbic seizures; 4 mg/kg i.p.
  % Protection at 30 min (4 mg/kg, i.p.): 50%
6 Hz limbic seizures; 2 hours, 4 mg/kg i.p.
  % Protection after 2 hours: NO: 142) (100% after 2 hours)
